This is an account of results in paper PMC5038272, “Glutamate Racemase Is the Primary Target of β-Chloro-D-Alanine in Mycobacterium tuberculosis” (Antimicrobial Agents and Chemotherapy, 2016).

Assay [1] deals with T1, alanine racemase (BsAlr) (Bacillus subtilis, UniProt P10725).
T1 construct: gene alr1; recombinant BsAlr
T1 sequence (P10725 1-389): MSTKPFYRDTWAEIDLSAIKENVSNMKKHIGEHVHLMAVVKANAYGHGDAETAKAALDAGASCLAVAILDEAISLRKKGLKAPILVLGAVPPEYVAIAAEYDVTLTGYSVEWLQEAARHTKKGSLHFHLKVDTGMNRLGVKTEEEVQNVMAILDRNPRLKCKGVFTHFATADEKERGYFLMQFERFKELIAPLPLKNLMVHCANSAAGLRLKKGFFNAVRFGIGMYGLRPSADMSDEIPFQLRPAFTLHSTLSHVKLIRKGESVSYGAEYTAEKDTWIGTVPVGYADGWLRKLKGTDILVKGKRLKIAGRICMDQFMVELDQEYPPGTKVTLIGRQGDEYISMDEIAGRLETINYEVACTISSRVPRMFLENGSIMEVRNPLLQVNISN
The assay is described as follows: time-dependent inactivation kinetics (kinact/Ki […] ^−[…] s^−[…]), partition ratio, dialysis. It counts as biochemical.

For assay [2], the target named is T2, alanine racemase (MtAlr) (Mycobacterium tuberculosis, UniProt P9WQA9).
T2 construct: gene alr
T2 sequence (P9WQA9 whole entry): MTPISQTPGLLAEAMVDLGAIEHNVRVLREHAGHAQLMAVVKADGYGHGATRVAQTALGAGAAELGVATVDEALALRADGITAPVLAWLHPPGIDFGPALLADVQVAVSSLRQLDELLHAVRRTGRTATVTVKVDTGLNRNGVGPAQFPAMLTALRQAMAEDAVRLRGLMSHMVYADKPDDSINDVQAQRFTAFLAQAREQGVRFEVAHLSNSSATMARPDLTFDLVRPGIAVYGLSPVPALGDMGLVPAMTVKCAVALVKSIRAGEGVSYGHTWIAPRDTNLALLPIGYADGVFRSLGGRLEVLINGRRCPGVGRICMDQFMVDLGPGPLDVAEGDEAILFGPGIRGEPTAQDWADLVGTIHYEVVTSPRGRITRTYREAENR
Kind of assay: time-dependent inactivation kinetics (poor inactivator, kinact/Ki […] ^−[…] s^−[…]), partition ratio […] dialysis, intact ESI-MS. It is filed as biochemical.

In assay [3] the target is T3, alanine racemase (EcAlr) (Escherichia coli, UniProt P0A6B4).
T3 construct: gene alr; recombinant EcAlr
T3 sequence (P0A6B4 whole entry): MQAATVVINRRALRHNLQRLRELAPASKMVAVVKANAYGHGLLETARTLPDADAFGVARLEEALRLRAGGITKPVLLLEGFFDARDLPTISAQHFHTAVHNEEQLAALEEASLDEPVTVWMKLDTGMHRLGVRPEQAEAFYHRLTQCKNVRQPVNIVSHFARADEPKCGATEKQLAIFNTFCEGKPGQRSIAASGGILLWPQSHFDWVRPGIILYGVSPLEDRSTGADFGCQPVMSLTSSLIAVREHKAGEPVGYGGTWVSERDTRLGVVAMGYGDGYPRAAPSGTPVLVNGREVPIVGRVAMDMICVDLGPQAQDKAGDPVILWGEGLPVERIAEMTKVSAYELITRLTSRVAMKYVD
Kind of assay: time-dependent inactivation kinetics, partition ratio, dialysis, intact ESI-MS. It is filed as biochemical.

The target of assay [4] is T4, glutamate racemase (BsMurI) (Bacillus subtilis, UniProt P94556).
T4 construct: gene racE; recombinant BsMurI
T4 sequence (P94556 whole entry): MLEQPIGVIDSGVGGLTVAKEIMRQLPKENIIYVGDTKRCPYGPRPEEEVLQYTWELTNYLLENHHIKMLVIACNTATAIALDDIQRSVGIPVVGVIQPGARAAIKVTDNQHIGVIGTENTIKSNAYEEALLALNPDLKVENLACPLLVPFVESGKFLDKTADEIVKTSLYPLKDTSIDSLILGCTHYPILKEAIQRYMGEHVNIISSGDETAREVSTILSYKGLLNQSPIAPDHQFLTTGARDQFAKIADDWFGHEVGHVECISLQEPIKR
Kind of assay: time-dependent inactivation kinetics (kinact/Ki), dialysis, intact ESI-MS (+[…]), tryptic LC-MS/MS. It is filed as biochemical. To be noted: read-out: time-dependent inactivation kinetics (kinact/Ki), dialysis, intact ESI-MS (+87).

For assay [5], the target named is T4, glutamate racemase (BsMurI). Kind of assay: intact ESI-MS covalent adduct and tryptic LC-MS/MS. It counts as binding.
Assay [6] has as its target T3, alanine racemase (EcAlr). Kind of assay: partition ratio of inactivation, purified enzyme. It is filed as biochemical.
Assay [7] has as its target T1, alanine racemase (BsAlr). The assay is described as follows: partition ratio of inactivation, purified enzyme. It counts as biochemical.
Assay [8] has as its target T2, alanine racemase (MtAlr). Kind of assay: partition ratio of inactivation, purified enzyme. It is filed as biochemical.

For the molecule `N[C@H](CCl)C(=O)O` [BCDA, β-chloro-D-alanine], the KI (inactivation) on alanine racemase (BsAlr) [1], on alanine racemase (MtAlr) [2] and on alanine racemase (EcAlr) [3] was 130 to 230 µM each time. The kinact/KI in assay [4] is 2.7 M⁻¹ s⁻¹.
Consider `N[C@@H](CCl)C(=O)O` [BCLA, β-chloro-L-alanine], for which the “intact ESI-MS covalent adduct and tryptic LC-MS/MS” value in assay [5] is reported as “BCLA modified BsMurI predominantly at C74, the cysteine residue responsible for deprotonation of an incoming D-Glu substrate”.
As for `CC(=O)OC[C@@H](N)C(=O)O` [OADS, O-acetyl–D-serine], the “partition ratio of inactivation, purified enzyme” value was “partition ratios were compared for the structurally and mechanistically similar Alr inhibitor O-acetyl–D-serine (OADS)” on alanine racemase (EcAlr) [6]; “partition ratios were compared for the structurally and mechanistically similar Alr inhibitor O-acetyl–D-serine (OADS)” at alanine racemase (BsAlr) [7]; “partition ratios were compared for the structurally and mechanistically similar Alr inhibitor O-acetyl–D-serine (OADS)” on alanine racemase (MtAlr) [8].
